The record followed here is patent US20260272936A1, “TREATMENT OF CANCER WITH A PARG INHIBITOR” (858 Therapeutics, Inc., priority 2023, published 2026).

Read-outs that look alike come from different tables or passages of the source.

In one data set the target is T1, human A1 receptor (Homo sapiens, UniProt P30542).
T1 construct: Eurofins (contract study)
Nature of the data set: Eurofins selectivity panel, radioligand competition binding at 10 μM. Here is the method: (§1) The inhibitory potential of Compound 1 was tested against 38 diverse non-kinase enzymes and 55 receptors, ion channels and neurotransmitter transporters in radioligand competition binding assays using mostly human recombinant proteins. […] Compound 1 was also tested against an additional panel of 468 protein kinases. Studies were performed at Eurofins (Luxembourg City, Luxembourg) using their published assay formats.
In general terms: In a radioligand displacement assay an active substance lowers the binding of a labelled ligand.

The next data set deals with T2, 5-HT2A receptor (Homo sapiens, UniProt P28223).
T2 construct: Eurofins (contract study)
Described as above. The protocol: as §1

For the next data set, the system named is OVCAR3 cells. Kind of data set: 6-day growth assay, Compound 1 in combination with camonsertib. The conditions noted are these: Homo sapiens, OVCAR-3, 144 h, read-out: Compound 1 IC50, 6-Day Nuclei Count. The data set is classed as cell-based.
Data set [1] concerns the target T3, human recombinant PARG (AA 389-976) (Homo sapiens, UniProt Q86W56).
T3 construct: His-tagged human recombinant PARG (AA 389-976) was coupled to a CM5 biosensor chip; made in house; host or cells: E. coli BL21 (DE3), pET28a
Nature of the data set: Surface plasmon resonance (SPR) direct binding. (In general: Surface plasmon resonance follows binding to a sensor surface in real time, without labels.)

Data set [2] concerns Resistant SNU601 cells (acquired niraparib resistance). Nature of the data set: 6-day proliferation, nuclei count, PARP inhibitor resistant line. The data set is classed as cell-based, human. The protocol:
The SNU601 gastric carcinoma cell line (Creative Bioarray, Cat #CSC-C9686L) was cultured in RPMI media containing glutamax, 10% fetal bovine serum, and 1% penicillin/streptomycin at 37° C., 5% CO2. To generate a PARP inhibitor resistant cell line, an IC20 concentration of niraparib was added to the culture media.
Compound 1 and the PARP inhibitor niraparib were tested in cellular proliferation assays using the parental SNU601 cell line and the SNU601 cell line with acquired PARPi resistance. For the proliferation assays, cells were plated in 96-well plates (Corning costar 3603) at 2500-5000 cells/well in normal growth media. The next day, compound dissolved in vehicle (0.5% DMSO in media) was added to generate a 7- to 10-point concentration curve with half-log dilutions and starting concentrations of 10 or 31.6 μM. After 6 days of compound or vehicle treatment, the cells were fixed with a solution of 8% paraformaldehyde, 0.2% Triton X-100 for 20 minutes. After washing the cells with PBS, the nuclei were stained by the addition of DAPI (4′,6-diamidino-2-phenylindole) and incubation for 20 minutes. The number of nuclei in each well were counted by imaging the plates on an Image Xpress Pico automated cell imaging system (Molecular Devices). The percent proliferation after treatment was determined by normalizing the number of nuclei in treated wells to the vehicle-treated wells. Concentration-response-curves and IC50 values for percent inhibition of proliferation were generated by non-linear regression analysis using GraphPad Prism 10 software.

Data set [3] has as its system HCC1428 breast cancer xenograft. Nature of the data set: HCC1428 breast cancer CDX model, tumor volume and body weight. Particulars: for % TGI: 25 days. The data set is classed as in vivo, BALB/c nude mice. Here is the method: Two separate studies were performed. […] Groups of 8 animals each were established by random assignment. Tumor volumes and body weights were measured twice weekly. The tumor volume (TV) in mm^3 was estimated using the formula: TV=a×b^2/2, where a and b are the long and short diameters of a tumor, respectively. For each treatment group, if the mean TV at the end of study was greater than the mean tumor volume at treatment initiation, then tumor growth inhibition (TGI) was calculated using the formula: % TGI=[1-(Mean TreatedTVFinal−Mean Treated TVInitial)/(Mean Vehicle TVFinal−Mean VehicleTVInitial)]×100. If the mean TV of the treatment group at the end of study was less than the mean tumor volume at treatment initiation, then tumor regression (REG) was calculated using the formula: % REG=[(Mean Treated TVInitial−Mean Treated TVFinal)/Mean TreatedTVInitial]×100. Statistical analysis of end-of-study tumor volumes was performed using two-way repeated measures ANOVA followed by post hoc comparisons of the mean.
The PARP inhibitor niraparib was included as a comparator and dosed orally QD at a dose of 45 mg/kg.
The mice in the 50 mg/kg BID group were dosed every day whereas the mice in the […] were dosed for the first 5 days of each 7-day cycle, such that the total weekly dose was the same between these two groups. At the end of the study, tumor tissue was collected for the vehicle, 50 mg/kg BID, and 30, 50 and 100 mg/kg QD dose groups and formalin-fixed and paraffin embedded (FFPE) for γH2AX immunohistochemistry. γH2AX expression in FFPE tumor tissue was evaluated by staining and was performed using immunohistochemistry and validated antibody conditions at Histowiz (Long Island City, NY, USA). The γH2AX IHC images were then quantified in-house using QuPath software. The total number of nuclei objects per tumor section based on hematoxylin counter-staining (blue) were segmented using a Stardist algorithm and the number of γH2AX positive DAB (3,3′ Diaminobenzidine) stained cells (brown) quantified using object classification with a pre-trained random forest model based on DAB staining parameters including intensity and standard deviation.

The test system is the same in data set [4]. The conditions noted are these: monotherapy or in combinations. Here is the method:
The CDX model was established by subcutaneous inoculation of HCC1428 cells into the right flank of BALB/c nude mice. Mice were injected subcutaneously with estradiol benzoate one day prior to cell inoculation and then twice per week thereafter to promote optimal growth of the ER^+ cell line. Groups of 9 animals each were established by random assignment. Tumor volumes and body weights were measured twice weekly. Tumor volume and percent tumor growth inhibition (TGI) or percent tumor regression (REG) were calculated as described in Example 4A. End-of-study Day […] TGI or REG was calculated relative to the Day 25 mean TV from the vehicle group. Statistical analysis of the Day 25 tumor volumes was performed using the Brown-Forsythe and Welch ANOVA test.
Compound treatment was initiated when the mean tumor volume of each group was 184 mm^3. Compound 1 was administered to mice orally for 25 days once daily (QD) at a dose of 100 mg/kg based on body weight. Abemaciclib was administered orally at a dose of 30 mg/kg QD for 25 days based on body weight and fulvestrant was administered subcutaneously at a dose of 5 mg/mouse once per week (QW). Following the dosing period of 25 days, an observation period was conducted for Group 5 (Compound 1+abemaciclib), Group 7 (abemaciclib+fulvestrant), and Group 8 (Compound 1+abemaciclib+fulvestrant) with continued twice weekly measurement of tumor volume and body weight measurements but no additional administration of compound.

T3 sequence (Q86W56 389-976): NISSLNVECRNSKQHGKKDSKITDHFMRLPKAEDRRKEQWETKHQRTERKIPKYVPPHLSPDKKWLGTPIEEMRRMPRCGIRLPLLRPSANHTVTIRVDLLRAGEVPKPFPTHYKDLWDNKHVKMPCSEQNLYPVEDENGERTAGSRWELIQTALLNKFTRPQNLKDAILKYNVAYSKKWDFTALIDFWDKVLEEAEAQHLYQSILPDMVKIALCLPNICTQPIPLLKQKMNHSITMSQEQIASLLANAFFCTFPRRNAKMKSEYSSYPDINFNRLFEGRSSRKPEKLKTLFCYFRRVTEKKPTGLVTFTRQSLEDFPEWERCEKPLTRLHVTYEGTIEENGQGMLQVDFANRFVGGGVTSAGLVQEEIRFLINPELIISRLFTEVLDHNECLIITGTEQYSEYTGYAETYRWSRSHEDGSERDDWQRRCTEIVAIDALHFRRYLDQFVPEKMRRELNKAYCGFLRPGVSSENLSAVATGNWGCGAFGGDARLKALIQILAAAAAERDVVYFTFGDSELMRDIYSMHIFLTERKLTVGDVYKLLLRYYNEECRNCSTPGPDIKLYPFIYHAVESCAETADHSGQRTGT
T1 sequence (P30542 whole entry): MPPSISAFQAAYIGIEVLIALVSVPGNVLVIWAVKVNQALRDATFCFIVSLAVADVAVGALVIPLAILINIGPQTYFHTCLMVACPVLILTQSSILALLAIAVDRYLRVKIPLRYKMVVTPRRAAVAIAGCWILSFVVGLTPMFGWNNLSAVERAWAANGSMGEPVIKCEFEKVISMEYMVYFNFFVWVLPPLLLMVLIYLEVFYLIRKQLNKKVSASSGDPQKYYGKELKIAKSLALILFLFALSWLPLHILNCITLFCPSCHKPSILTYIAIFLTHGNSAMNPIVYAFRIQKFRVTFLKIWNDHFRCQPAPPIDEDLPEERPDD
T2 sequence (P28223 whole entry): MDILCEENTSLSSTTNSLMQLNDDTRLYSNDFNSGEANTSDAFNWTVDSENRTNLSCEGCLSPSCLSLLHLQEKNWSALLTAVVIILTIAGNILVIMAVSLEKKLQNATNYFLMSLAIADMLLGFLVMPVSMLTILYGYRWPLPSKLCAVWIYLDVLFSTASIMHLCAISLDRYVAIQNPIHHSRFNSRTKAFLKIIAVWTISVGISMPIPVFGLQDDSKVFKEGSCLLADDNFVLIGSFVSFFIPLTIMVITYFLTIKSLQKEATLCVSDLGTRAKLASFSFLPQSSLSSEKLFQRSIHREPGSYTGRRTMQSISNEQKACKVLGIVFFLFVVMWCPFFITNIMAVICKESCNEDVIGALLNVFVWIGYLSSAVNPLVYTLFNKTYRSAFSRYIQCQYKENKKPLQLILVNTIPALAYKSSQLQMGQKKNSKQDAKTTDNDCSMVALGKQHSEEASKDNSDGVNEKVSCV

As for `[2H]C([2H])(c1cnn(C)c1)N1C(=O)c2cc(S(=O)(=O)NC3(C)CC3)ccc2N2C1=NC[C@H]2C` [Compound 1, (R)-1-methyl-4-((1-methyl-1H-pyrazol-4-yl)methyl-d2)-N-(1-methylcyclopropyl)-5-oxo-1,2,4,5-tetrahydroimidazo[1,2-a]quinazoline-7-sulfonamide], the inhibition at 10 µM amounted to 67% at human A1 receptor and 64% on 5-HT2A receptor. Also, the IC50 in the data set with OVCAR3 cells (camonsertib 0.032 nM) stood at 39 µM; in the data set with OVCAR3 cells (camonsertib 0.32 nM), 44 µM; in the data set on OVCAR3 cells (camonsertib 3.2 nM), 29 µM; in the data set on OVCAR3 cells (camonsertib 10 nM), 12 µM; in the data set on OVCAR3 cells (camonsertib 32 nM) it was 2 µM; with OVCAR3 cells (camonsertib 100 nM), 0.27 µM. Also, the IC50 in data set [2] (Homo sapiens, SNU-601, 144 h, read-out: IC50 inhibition of proliferation) amounted to 320 nM. Besides, in data set [1] (SPR kinetic KD, 1:1 binding, 25° C., mean n=2), the Kd turned out to be 1.1 nM. The “Rmax (Relative Units)” value in data set [1] (relative amount of PARG bound by Compound 1) was found to be 15.9 Relative Units. Moreover, the “Theoretical Rmax” value in data set [1] (total amount of PARG immobilized on the biosensor chip) is 19.8. The “better potency than niraparib in PARPi resistant SNU601” value in data set [2] stood at 10 ×. In addition, in data set [3] (Study 1, 75 mg/kg BID), the “mean body loss over the treatment period” value is less than 4%. In addition, the “mean body weight change over the treatment period” value in data set [3] (Study 1, 100 mg/kg QD) is given as “mean body weight increase”. Further, the “% TGI” value in data set [3] (Study 2, 10 mg/kg QD oral) was determined as 26% TGI; in data set [3] (Study 2, 30 mg/kg QD oral), 35% TGI. Further, the “mean body weight loss during the treatment period” value in data set [3] (Study 2, all dose groups) is no more than 2%. Also, in data set [4], the tolerability result is given as “well tolerated”.

Usually inhibition stands for how much of the control response was suppressed. As usually defined, the Kd is the constant that tells how readily two partners part at equilibrium.
